In patent US20240408082A1, “METHODS FOR TREATING CANCERS AND TUMORS” (BEYONDSPRING PHARMACEUTICALS, INC., priority 2021, published 2024):

Key:
[1] = tested on: osteosarcoma model SXFO 1186; test: 3D clonogenic assay, Example 2, SXFO 1186; format: cell-based
Procedure: (§1) The present study investigated plinabulin for anticancer activity ex vivo in 68 out of 71 originally planned patient-derived xenograft (PDX) models representing major cancer types. Experiments were performed using a 3D clonogenic assay in a 96-well format with colony count based on image analysis as a read-out. By using this assay, the investigational compound was assessed for the ability to inhibit anchorage independent growth and ex vivo colony formation of tumor cells in semi-solid medium.
(§2) A master stock solution of plinabulin was prepared by dissolving the compound in DMSO at a concentration of 9.9 mM. Working stock solutions were prepared by diluting the master stock solution with DMSO to a concentration of 0.99 mM (330-fold the highest test concentration). Small aliquots of the master and working stock were stored at −20° C. […]
(§3) Plinabulin was investigated in 68 PDX models representing a number of cancer types. […] The percentage of viable cells was determined in a Neubauer-hemocytometer using trypan blue exclusion. […]
(§4) The clonogenic assay was carried out in a 96 well plate format using ultra low attachment plates. […] Cultures were incubated at 37° C. and 7.5% CO2 in a humidified atmosphere 13 days in total and monitored closely for colony growth using an inverted microscope. […]

bladder cancer models = test: 3D clonogenic assay, Example 2, bladder cancer models; format: cell-based; settings: n=6 models
Procedure: as §1, §2, §3, §4

SMILES: CC(C)(C)c1[nH]cnc1/C=c1\[nH]c(=O)/c(=C/c2ccccc2)[nH]c1=O [plinabulin, (3Z,6Z)-3-Benzylidene-6-{[5-(2-methyl-2-propanyl)-1H-imidazol-4-yl]methylene}-2,5-piperazinedione]
- abs. IC70 [1]: 27 nM
- IC50 ([1]; read-out: abs. IC50): 19 nM
- geometric mean absolute IC70 (bladder cancer models): > 3000 nM
